Experiments:
Experiment in all cases: relative viability (nuclei count vs DMSO), 5 days (fraction); higher = more cells survive
Erlotinib + Palbociclib = compound: C#Cc1cccc(Nc2ncnc3cc(OCCOC)c(OCCOC)cc23)c1 [Erlotinib] + CC(=O)c1c(C)c2cnc(Nc3ccc(N4CCNCC4)cn3)nc2n(C2CCCC2)c1=O [Palbociclib] (partner 0.5 µM)
Summary of the method: (§1)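 Each reported value is a median over duplicate plates. It expresses relative viability: treated-well nuclei count divided by vehicle-well nuclei count. Lung cancer cell lines in 1536-well plates were dosed by pin tool a day after seeding, alone with one drug or with a fixed anchor-drug dose plus five library-drug doses (not always all listed) in √10 steps, and nuclei were counted after 5 days.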

Erlotinib + Lapatinib = compound: C#Cc1cccc(Nc2ncnc3cc(OCCOC)c(OCCOC)cc23)c1 [Erlotinib] + CS(=O)(=O)CCNCc1ccc(-c2ccc3ncnc(Nc4ccc(OCc5cccc(F)c5)c(Cl)c4)c3c2)o1 [Lapatinib] (partner 2 µM)
Summary of the method: as §1

Erlotinib + Pictilisib = compound: C#Cc1cccc(Nc2ncnc3cc(OCCOC)c(OCCOC)cc23)c1 [Erlotinib] + CS(=O)(=O)N1CCN(Cc2cc3nc(-c4cccc5[nH]ncc45)nc(N4CCOCC4)c3s2)CC1 [Pictilisib] (partner 1 µM)
Summary of the method: as §1

Erlotinib + Olaparib = compound: C#Cc1cccc(Nc2ncnc3cc(OCCOC)c(OCCOC)cc23)c1 [Erlotinib] + O=C(c1cc(Cc2n[nH]c(=O)c3ccccc23)ccc1F)N1CCN(C(=O)C2CC2)CC1 [Olaparib] (partner 8 µM)
Summary of the method: as §1

AT9283 + Lapatinib = compound: O=C(Nc1c[nH]nc1-c1nc2ccc(CN3CCOCC3)cc2[nH]1)NC1CC1 [AT9283] + CS(=O)(=O)CCNCc1ccc(-c2ccc3ncnc(Nc4ccc(OCc5cccc(F)c5)c(Cl)c4)c3c2)o1 [Lapatinib] (partner 2 µM)
Summary of the method: as §1

Row | Cell Line | relative viability (Erlotinib + Palbociclib; first compound 0.02 µM) | relative viability (Erlotinib + Palbociclib; first compound 0.2 µM) | relative viability (Erlotinib + Palbociclib; first compound 0.6325 µM) | relative viability (Erlotinib + Palbociclib; first compound 2 µM) | relative viability (Erlotinib + Lapatinib; first compound 0.2 µM) | relative viability (Erlotinib + Lapatinib; first compound 0.6325 µM) | relative viability (Erlotinib + Lapatinib; first compound 2 µM) | relative viability (Erlotinib + Pictilisib; first compound 0.02 µM) | relative viability (Erlotinib + Pictilisib; first compound 0.2 µM) | relative viability (Erlotinib + Pictilisib; first compound 0.6325 µM) | relative viability (Erlotinib + Pictilisib; first compound 2 µM) | relative viability (Erlotinib + Olaparib; first compound 0.02 µM) | relative viability (Erlotinib + Olaparib; first compound 0.2 µM) | relative viability (Erlotinib + Olaparib; first compound 0.6325 µM) | relative viability (Erlotinib + Olaparib; first compound 2 µM) | relative viability (AT9283 + Lapatinib; first compound 0.003 µM) | relative viability (AT9283 + Lapatinib; first compound 0.03 µM) | relative viability (AT9283 + Lapatinib; first compound 0.09487 µM) | relative viability (AT9283 + Lapatinib; first compound 0.3 µM) | relative viability (Erlotinib + Lapatinib; first compound 0.02 µM)
1 | NCI-H1395 | 0.619 | 0.532 | 0.657 | 0.571 | 1.11 | 1.02 | 0.961 | 0.71 | 0.638 | 0.567 | 0.733 | 0.465 | 0.43 | 0.426 | 0.432 | 0.904 | 0.703 | 0.412 | 0.427 | –
2 | LU99A | 0.466 | 0.421 | 0.38 | 0.327 | 0.999 | 1.05 | 0.768 | 0.302 | 0.31 | 0.347 | 0.281 | 0.309 | 0.29 | 0.252 | 0.208 | 0.846 | 0.357 | 0.188 | 0.207 | 1.1
3 | NCI-H650 | 0.317 | 0.341 | 0.335 | 0.35 | 1.08 | 1.14 | 0.744 | 0.963 | 0.942 | 0.904 | 0.936 | 0.419 | 0.389 | – | 0.34 | 0.832 | 0.842 | 0.252 | 0.199 | 0.754
4 | NCI-H522 | 0.908 | 0.969 | 0.883 | 0.824 | – | – | – | – | – | – | – | 0.614 | 0.553 | 0.61 | 0.422 | – | – | – | – | –
5 | HCC-827 | 0.191 | 0.146 | 0.135 | 0.154 | 0.163 | 0.201 | 0.171 | 0.374 | 0.241 | 0.273 | 0.329 | 0.243 | 0.147 | 0.149 | 0.139 | 0.195 | 0.216 | 0.191 | 0.164 | 0.239
6 | 201T | 0.35 | 0.323 | 0.319 | 0.287 | 1.03 | 1.08 | 0.934 | 0.694 | 0.651 | 0.692 | 0.664 | 0.846 | 0.85 | 0.788 | 0.774 | 0.816 | 0.96 | 0.904 | 0.409 | 1.01
7 | Calu-6 | – | – | – | – | – | 1.1 | 0.979 | 0.94 | 0.856 | 0.913 | 0.817 | 0.602 | 0.546 | 0.552 | 0.519 | 1.1 | 0.33 | 0.245 | 0.27 | 1.12
8 | NCI-H2009 | 0.173 | 0.205 | 0.235 | 0.203 | 1.03 | 1.07 | 0.889 | 0.836 | 0.763 | 0.943 | 0.732 | 0.783 | 0.73 | 0.792 | 0.627 | 1.01 | 0.337 | 0.31 | 0.305 | 0.971
9 | EKVX | 0.348 | 0.191 | 0.205 | 0.115 | 0.178 | 0.192 | 0.186 | 0.405 | 0.217 | 0.191 | 0.109 | 0.839 | 0.476 | 0.385 | 0.183 | 0.241 | 0.188 | 0.128 | 0.108 | 0.206
10 | LC-2-ad | 0.527 | 0.491 | 0.472 | 0.411 | 0.896 | 1.05 | 0.861 | 0.557 | 0.427 | 0.429 | 0.303 | 0.709 | 0.785 | 0.692 | 0.625 | 0.938 | 0.0948 | 0.0976 | 0.0947 | 1.03
11 | EBC-1 | – | – | – | – | 0.19 | 0.221 | 0.22 | 0.382 | 0.322 | 0.309 | 0.259 | 0.724 | 0.75 | 0.675 | – | 0.217 | 0.178 | 0.208 | 0.182 | 0.23
12 | ChaGo-K-1 | 0.89 | 0.952 | 0.951 | 0.854 | – | – | – | 0.472 | 0.659 | 1.05 | 0.508 | 0.426 | 0.466 | 0.391 | 0.402 | – | – | – | – | –
13 | NCI-H596 | – | – | – | – | 1 | 0.998 | 1.01 | 0.383 | 0.478 | 0.383 | 0.351 | 0.776 | 0.635 | 0.674 | 0.586 | 0.845 | 0.884 | 0.623 | 0.404 | –
14 | SW 900 | 0.492 | 0.48 | 0.472 | 0.398 | – | – | – | – | – | – | – | 0.907 | 0.846 | 0.84 | – | – | – | – | – | –
15 | A549 | – | – | – | – | 0.979 | 1.06 | 0.94 | 0.471 | 0.529 | 0.582 | 0.406 | 0.345 | 0.303 | 0.332 | 0.269 | 1.02 | 0.0919 | 0.0686 | 0.0884 | 0.957
16 | NCI-H1563 | – | – | – | – | 0.851 | 0.843 | 0.879 | 0.63 | 0.706 | 0.679 | 0.636 | – | – | – | – | 0.941 | 0.811 | 0.843 | 0.701 | 0.877
17 | NCI-H2342 | 0.469 | 0.439 | 0.457 | 0.591 | – | – | – | – | – | – | – | 0.378 | 0.425 | 0.462 | 0.383 | – | – | – | – | –
18 | NCI-H1703 | – | – | – | – | – | 1.21 | 0.992 | 0.233 | 0.218 | 0.29 | 0.243 | 0.48 | 0.512 | 0.43 | 0.389 | 1.24 | 0.277 | 0.31 | 0.354 | 1.42
19 | NCI-H1299 | – | – | – | – | 0.995 | 0.904 | – | 0.894 | 0.839 | 0.918 | 0.55 | 0.988 | 1.01 | 0.959 | 1 | 1.02 | 0.509 | 0.404 | 0.343 | 0.994
20 | NCI-H1648 | 0.337 | 0.277 | 0.293 | 0.272 | – | – | – | – | – | – | – | 1.4 | 0.517 | 0.692 | 0.442 | – | – | – | – | –
